These results are taken from patent US8628762B2, “T-helper cell type 17 lineage-specific adjuvants, compositions and methods” (Icahn School of Medicine at Mount Sinai, priority 2008, dated 2014).

Entries after “also recorded” stand apart in the source; their conditions may differ.

Series [1] has as its system intestinal epithelial cells. Description: TUNEL staining of colon sections of C. rodentium infected mice. Type of series: in vivo, C3H/HeOuJ mice. As to conditions: 20 mg/kg intraperitoneally on days 0, 1, 2, 3, and 5, colons day 6. On the procedure: Colons of C3H/HeOuJ mice were harvested on day 6 and flushed with PBS. Tissues were fresh-frozen in O.C.T. Compound (Sakura Finetek, Zoeterwoude, The Netherlands) and stored at −80° C. Sections of 6 μm were cut and fixed with either 4% paraformaldehyde or ice-cold acetone for 1 h, dried, and stored at −20° C. TUNEL staining was performed using the In Situ Cell Death Detection Kit, TMR Red (Roche) according to manufacturer's instructions. For immunostaining, sections were blocked and incubated with primary antibodies in a humidified atmosphere for 1 hour at room temperature. After washing, conjugated secondary antibodies were added for 35 minutes. The slides were then washed and mounted with Fluoromount-G (Southern Biotech, Birmingham, Ala.). […] Analyses were performed using 10× and 20× dry objectives on a Nikon Eclipse E-600 fluorescence microscope and Adobe® Photoshop® software (Adobe Systems, San Jose, Calif.).
(§1) WT and mutant C. rodentium were prepared by incubation with shaking at 37° C. for 8 hours in LB broth medium. After 8 hours, the bacterial density was assessed at an optical density of 600 nm and confirmed by plating of serial dilutions. […]

The next series concerns A20 cells. Description: Inhibition of anti-Fas induced apoptosis, Annexin-V/7-AAD flow cytometry. Type of series: cell-based. Conditions: anti-Fas (anti-CD95), four hours, Annexin V/7AAD staining.
Series [2] concerns caspase-9 and caspase-3, caspase-8 and caspase-10, and caspase-12. Conditions: cited from earlier work.
In series [3] the test system is infection induced barrier function. Conditions: cited from earlier work.
For series [4], the system named is IL-17+ CD4 T-cells in the lamina propria. Put plainly: IL-17+ CD4 T-cells in lamina propria of C. rodentium infected mice (flow cytometry). The series is classed as in vivo, C57BL/6J and C3H/HeOuJ mice. On the procedure: The small intestines and colons of C57BL/6J or C3H/HeOuJ mice were harvested at the indicated times. […] To prepare IEL/LPL, small intestines and colons were flushed with HBSS medium without calcium or magnesium (Gibco). Intestines were cut longitudinally and washed twice briefly in HBSS, 2% FBS in 6-well plates and then placed in 15 mL ice-cold HBSS, 2% FBS in 50-mL conical tubes and vortexed at maximum setting for 15-20 seconds. Tissue was removed using long forceps into a new tube with 15 mL ice-cold HBSS, 2% FBS and vortexed again twice, for a total of three washes. The tissues were then placed in 50-mL conical tubes containing 25 mL, HBSS, 5% FBS, and 1 mM DTT (Sigma-Aldrich). Tubes were incubated on a rocker at 37° C. for 20 minutes followed by vortexing extensively at maximum setting. For IEL, fractions were collected after two rounds of 20 minutes in HBSS/FBS/DTT. Tissues were then placed in fresh tubes containing 25 mL of PBS with 1.3 mM EDTA, incubated on a rocker for 60 minutes at 37° C. and vortexed. […]
as §1
(In general: Flow cytometry measures light scatter and fluorescence of single cells or particles in a stream.)

For `CC(C)[C@H](NC(=O)c1ccc2ccccc2n1)C(=O)N[C@@H](CC(=O)O)C(=O)COc1c(F)cccc1F` [Q-VD-OPH], the “numbers of TUNEL+ cells” value in series [1] is “decreased numbers of TUNEL^+ cells”. Also, the Fas-induced apoptosis result in the series with A20 cells is on record as “protected from undergoing Fas-induced apoptosis; also recorded: inhibits apoptosis”. For the same compound, in series [2] (caspase-9 and caspase-3, caspase-8 and caspase-10, and caspase-12 pathways), the “prevention of apoptosis by pathway” value is reported as “equally effective in preventing apoptosis mediated by the three major apoptotic pathways”. Moreover, in series [2], the “prevention of apoptosis compared with other caspase inhibitors” value was “significantly more effective in preventing apoptosis than ZVAD-fmk and Boc-D-fmk”; the toxicity to cells result is listed as “not toxic to cells even at extremely high concentrations”. Also, the “effect on infection induced barrier function” value in series [3] is listed as “has no effects on infection induced barrier function”. In addition, the “number of IL-17+ CD4 T-cells” value in series [4] (C. rodentium infected C57BL/6J mice) was “levels similar to those found in uninfected mice”. Also, the “number of IL-17+ CD4 T-cells” value in series [4] (both strains of C. rodentium infected mice) is listed as “profoundly diminished the number of IL-17^+ CD4 T-cells”.
